# Test results from ChEMBL document CHEMBL4706675, “Ulmusakidian, a new coumarin glycoside and antifungal phenolic compounds from the root bark of Ulmus davidiana var. japonica” (2021).
# Activity calls are given as the source filed them. The rule behind the calls is not given here.
# Tested on: Candida albicans
# Assay: Antifungal activity against Candida albicans assessed as fungal growth inhibition
# Type: functional, organism-based
row,SMILES,Activity
1,COc1cc2c(cc1O)[C@H](c1cc(OC)c(O)c(OC)c1)[C@@H](COC1OC[C@@H](O)[C@H](O)[C@H]1O)[C@H](CO)C2 (stereo not given in full),inactive
2,COc1cc([C@@H]2Oc3c(OC)cc(CCCO)cc3[C@H]2CO)ccc1O[C@@H]1O[C@@H](C)[C@H](O)[C@@H](O)[C@H]1O,inactive
3,COc1cc(O)c2c(=O)c(O[C@@H]3O[C@@H](C)[C@H](O)[C@@H](O)[C@H]3O)c(-c3ccc(O)c(O)c3)oc2c1,inactive
4,COc1ccc(-c2cc(=O)c3c(O)cc(O)cc3o2)cc1,inactive
5,COc1cc(C(=O)OC[C@H]2O[C@@H](Oc3c(O)c(OC)cc4ccc(=O)oc34)[C@H](O)[C@@H](O)[C@@H]2O)ccc1O,inactive
6,COc1ccc(-c2cc(=O)c3c(OC)cc(OC)cc3o2)cc1,inactive
7,COc1cc([C@H]2c3cc(O)c(OC)cc3C[C@@H](CO)[C@@H]2COC2OC[C@@H](O)[C@H](O)[C@H]2O)ccc1O (stereo not given in full),inactive
8,COc1ccc(-c2oc3cc(OC)cc(OC)c3c(=O)c2OC)cc1,inactive
9,COc1cc(C(=O)OC[C@H]2O[C@@H](Oc3c(O)c(OC)cc4ccc(=O)oc34)[C@H](O)[C@@H](O)[C@@H]2O)cc(OC)c1O,inactive
10,COc1cc(C[C@@H](CO)[C@H](COC2OC[C@@H](O)[C@H](O)[C@H]2O)Cc2cc(OC)c(O)c(OC)c2)cc(OC)c1O (stereo not given in full),inactive
